Experimental data taken from US20090074757A1, “Antitumor Combination Comprising Substituted Acryloyl Distamycin Derivatives and Antibodies Inhibiting Growth Factors or Their Receptors” (priority 2005, published 2009).

System: DU145 human prostate carcinoma cells
Assay: In vivo antitumor efficacy, DU145 human prostate carcinoma xenograft in athymic mice
Parameters: species or system Balb Nu/Nu athymic mice
Conditions: for Toxicity: evaluated on the basis of body weight reduction, animals per group of 8, bevacizumab 20 mg/kg i.p., brostallicin 0.2 mg/kg i.v.; for Time to reach 1 g / T-C (days), delay for treated vs control tumors to reach 1 g: s.c. DU145 tumors in athymic mice, bevacizumab 20 mg/kg i.p. days 6,10,13,17,20,24; for Time to reach 1 g: treatment from day 6, brostallicin 0.2 mg/kg i.v. days 6,13,20 (q7d x 3); for T-C (days), delay for treated vs control tumors to reach 1 g: brostallicin 0.2 mg/kg i.v. days 6,13,20
Procedure: Balb Nu/Nu, male mice, (athymic mice) from Harlan, Italy, were maintained in cages with paper filter covers, food and bedding sterilized and water acidified. 2.5×10^6 DU145 human prostate carcinoma cells (from American Type Culture Collection) were injected subcutaneously in athymic mice. […] The treatments started 6 days later when the tumors were palpable. All drugs were prepared immediately before use. Brostallicin treatments were administered intravenously in a volume of 10 ml/kg at a dose of 0.2 mg/kg and treatments were repeated weekly for 3 weeks. Bevacizumab was administered intraperitoneally in a volume of 10 ml/kg at a dose of 20 mg/kg on the days 6, 10, 13, 17, 20 and 24 from the day of cell injection. When both compounds were administered on the same day, bevacizumab was administered intraperitoneally immediately before brostallicin intravenous injection. Every 3 days the tumor growth and the net body weight were evaluated. Tumor growth was assessed by caliper. The two diameters were recorded, and the tumor weight was calculated according to the following formula: length (mm)×width^2 (mm)/2. The effect of the antitumor treatment was determined as the delay in the onset of an exponential growth of tumors [see for reference, Anti Cancer Drugs 7: 437-60, 1996]. This delay (T-C value) was defined as the difference of the time (in days) required for the treatment group (T) and the control group (C) tumors to reach a predetermined size (e.g. 1 g). Toxicity was evaluated on the basis of the body weight reduction.

Molecule | Toxicity | Time to reach 1 g | T-C (days), delay for treated vs control tumors to reach 1 g
C=C(Br)C(=O)Nc1cc(C(=O)Nc2cc(C(=O)Nc3cc(C(=O)Nc4cc(C(=O)NCCNC(=N)N)n(C)c4)n(C)c3)n(C)c2)n(C)c1.Cl [Brostallicin, N-(5-{[(5-{[(5-{[(2-{[amino(imino)methyl]amino}ethyl)amino]carbonyl}-1-methyl-1H-pyrrol-3-yl)amino]carbonyl}-1-methyl-1H-pyrrol-3-yl)amino]carbonyl}-1-methyl-1H-pyrrol-3-yl)-4-[(2-bromoacryloyl)amino]-1-methyl-1H-pyrrole-2-carboxamide hydrochloride] | 0/8 | 18.4 ± 5.6 days | 4.6 days
Bevacizumab: monoclonal antibody directed against the vascular endothelial growth factor (VEGF), a potent neo-vascularisation inhibitor | 0/8 | 23.4 ± 4.6 days | 9.6 days
